Measurements as given in ChEMBL document CHEMBL1132501, “Synthesis and anti-Helicobacter pylori activity of FR182024, a new cephem derivative” (1999).

What was measured:
[1] = The compound was tested against penicillinase (TEM) and its stability towards beta-lactamase relative to cephaloridine was evaluated
[2] = tested on: Beta-lactamase (Bacteroides fragilis); assay: The compound was tested against Bacteroides fragilis FP784 its stability towards beta-lactamase relative to cephaloridine was evaluated
[3] = The compound was tested against penicillinase (TEM) and its stability towards beta-lactamase was evaluated
[4] = The compound was tested against Penicillinase (TEM) and its stability towards beta-lactamase relative to cephaloridine was evaluated; assay type: functional

SMILES | Vmax [1] | Vmax / Km [1] | Vmax / Km [2] | Km [3] [µg/mL] | Vmax [4] | Vmax / Km [4]
Cc1nnc(SC2=C(C(=O)O)N3C(=O)[C@@H](NC(=O)Cc4ccccc4)[C@H]3SC2)s1 | 3.61 | 6.33 | 1.98 | 47.4 | – | –
O=C(Cc1cccs1)N[C@@H]1C(=O)N2C(C(=O)[O-])=C(C[n+]3ccccc3)CS[C@H]12 | – | – | – | – | 1 | 1
